One experiment relates to g-ddY mice. Description: UACR (albuminuria) in g-ddY mouse model of IgA nephropathy. The format is in vivo. The source says: The grouped ddY (g-ddY) mouse is a spontaneous model of early-onset IgA nephropathy characterized by IgA immune complex deposition in the mesangium of the kidney, leading to significant proteinuria, glomerular hypercellularity, mesangioproliferative glomerular lesions, glomerular sclerosis and reduced kidney function, all hallmarks of human IgA nephropathy (J Am Soc Nephrol 23: 1364-1374, 2012). Consistent with human IgA nephropathy, the mesangial IgA deposits in the g-ddY mouse are also accompanied by deposition of IgG and complement C3.

In experiment [1] the test system is kidney tissue of g-ddY mice. Nature of the experiment: Gene Set Enrichment Analysis (GSEA) hallmark gene sets, g-ddY kidney RNA-seq. To be noted: 30 mg/kg/day. It counts as in vivo, mouse.
Experiment [2] relates to primary human renal mesangial cells (HRMCs). Description: Proliferation (BrdU) of HRMCs stimulated with IgA-containing immune complexes from IgAN patients. It counts as cell-based. The conditions noted are these: immune complexes purified from three patients with IgA nephropathy. The source says: Primary human mesangial cells in a culture were stimulated with pathogenic galactose deficient (Gd)-IgA containing immune complexes isolated from human IgA nephropathy patients. […] Specifically, pathogenic IgA-containing immune complexes were isolated from serum from either IgA nephropathy patients or age, gender and ethnicity-matched healthy individuals. Frozen serum was purchased from BioIVT and IgA-containing immune complexes were purified using jacalin affinity chromatography. […] Purified IgA-containing immune complexes were concentrated using a 100K Amicon filtration unit and the amount of total IgA and galactose-deficient IgA (Gd-IgA) in the immune complexes was measured by ELISA (ThermoFisher and IBL America, respectively). […] See, e.g., Novak et. al., Kidney International, 67, pp. 504-516; 2005; Novak et. al., Nephrol. Dial. Transplant, 26, pp. 3451-3457; 2011; Liang et. al., Cell Physiol. Biochem., 36, pp. 1793-1808; 2015; Nguyen et. al., Clin. Kidney 1, 12 (2), pp, 232-238; 2019.

The subject of experiment [3] is kidney tissue of g-ddY mice. Description: Ingenuity Pathway Analysis (IPA) canonical pathways, g-ddY kidney RNA-seq. The format is in vivo, mouse. The conditions noted are these: 30 mg/kg/day.
The subject of a further experiment is ET-1 stimulated HRMC. Nature of the experiment: Hallmark gene set enrichment in ET-1 stimulated HRMC treated with atrasentan. The conditions noted are these: g-ddY and HRMC model systems; HRMC: atrasentan 1 nM and 25 nM with ET-1.
Setting [4] is: 20 and 30 mg/kg/day, approximately 5 days.

“Also recorded” adds a separate entry of the source.

Take `CCCCN(CCCC)C(=O)CN1C[C@H](c2ccc3c(c2)OCO3)[C@@H](C(=O)O)[C@@H]1c1ccc(OC)cc1` [atrasentan, (2R,3R,4S)-4-(1,3-benzodioxol-5-yl)-1-[2-(dibutylamino)-2-oxoethyl]-2-(4-methoxyphenyl)pyrrolidine-3-carboxylic acid]: the “effect to reduce UACR from baseline compared to the control group” value (“effect to reduce UACR from baseline” for short) with g-ddY mice (10 mg/kg/day) is “not significant”. In addition, in the experiment with g-ddY mice (10 mg/kg/day, approximately 5 days), the “albuminuria compared to baseline” value is on record as “not significantly changed from baseline”. Besides, the “effect to reduce UACR from baseline” value in the experiment with g-ddY mice (20 mg/kg/day, P=0.0498, un-paired t-test) is reported as “statistically significant”. The “albuminuria compared to baseline” value in the experiment with g-ddY mice (20 mg/kg/day, approximately 5 days, P=0.0593) is “reduced from baseline to a similar extent”. Further, the “effect to reduce UACR from baseline” value in the experiment with g-ddY mice (30 mg/kg/day, P=0.029) is “statistically significant”. Moreover, the “albuminuria compared to baseline” value in the experiment with g-ddY mice (30 mg/kg/day, approximately 5 days, paired t-test) is on record as “significantly (P=0.0002, paired two-sided t-test) reduced”. Also, in the experiment on g-ddY mice (setting [4]), the “albuminuria compared to control g-ddY mice” value is listed as “significantly reduced” and the “albuminuria lowering, reduction from baseline” value is listed as more than 60%. Besides, in experiment [1], the “cell proliferation associated signaling (mitotic spindle and G2M checkpoint)” value was “reduced”; the inflammatory response signaling result is given as “reduced”. Further, in experiment [2], the “hyperproliferation of HRMCs induced by IgA containing immune complexes” value is given as “reduces the proliferation; also recorded: significantly attenuated”. For the same molecule, in experiment [3], the IL-6 signaling result is listed as “reduced”, the NF-κB signaling result is given as “reduced” and the PDGF signaling entry was “reduced”. In addition, in the experiment on ET-1 stimulated HRMC, the “expression of hallmark gene sets (negative enrichment scores)” value is “under-expression”.

These data come from US20220304978A1, “INHIBITING MESANGIAL CELL ACTIVATION” (Chinook Therapeutics, Inc., priority 2019, published 2022).
